Measured values reported in patent US20080274892A1, “Novel Haloalkylsulfonanilide Derivative, Herbicide, and Method of Use Thereof” (priority 2005, published 2008).

How the values were obtained:
bulrush [1] = assay: Test Example 1: herbicidal efficacy on rice paddy weeds pre-emergence; assay type: in vivo, Scirpus juncoides; conditions: 21 days
false pimpernel [2] = assay: as above; assay type: in vivo, Lindernia pyxidaria; conditions: 21 days
barnyard glass = assay: Test Example 2: herbicidal efficacy on rice paddy weeds post-emergence; assay type: in vivo, Echinochloa crus-galli; conditions: post-emergence, one leaf stage, 21 days after treatment
Procedure, shortened: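 Plastic pots of 75 cm^2 were filled with clay loam soil and sown with barnyard glass and bulrush seeds, then topped with 75 cm^3 soil containing false pimpernel seeds. The pots were flooded to 5 cm water depth and held in a hot house. Twenty-one days after treatment, herbicidal efficacy was graded against an untreated control.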

bulrush [3] = assay: as above; assay type: in vivo, Scirpus juncoides; conditions: post-emergence, one leaf stage, 21 days after treatment
false pimpernel [4] = assay: as above; assay type: in vivo, Lindernia pyxidaria; conditions: post-emergence, one leaf stage, 21 days after treatment
[5] = test system: paddy rice plant (cultivar: Nihonbare); assay: Test Example 3: phytotoxicity test for transplanted paddy rice plant; assay type: in vivo; conditions: transplanted rice, 21 days after treatment
Procedure, shortened: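 Clay loam soil was placed in a 75 cm^2 plastic pot and flooded to a water depth of 5 cm. Two Nihonbare paddy rice plants at the two-leaf stage were transplanted 1 cm deep and grown in a hot house. After treatment, pots stayed in the hot house for 21 days, and phytotoxicity was then graded against an untreated control.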

bulrush [6] = assay: Test Example 4: low dosage test for rice paddy weeds; assay type: in vivo, Scirpus juncoides; conditions: 300 g/ha as an active ingredient; plants treated at the one leaf stage; 21 days after treatment; vs untreated control
Procedure, shortened: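 Bulrush sown in clay loam pots, flooded to 5 cm water in a hot house, treated at the one-leaf stage with formulated compound at 300 g/ha. Efficacy scored 0–4 against untreated control 21 days after treatment (4 = 90–100%, 0 = 0% inhibition).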

[7] = test system: transplanted paddy rice plant and Bulrush; assay: Test Example 5: selectivity between transplanted paddy rice plant and weeds; assay type: in vivo; conditions: (highest dosage with no phytotoxicity to paddy rice)/(lowest dosage with effective level 4 on Bulrush); rice 3000-100 g/ha, Bulrush 300-10 g/ha; 21 days
Procedure, shortened: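 Transplanted paddy rice was treated at 3000, 1000, 300 and 100 g/ha active ingredient for phytotoxicity, and post-emergence bulrush at 300, 100, 30 and 10 g/ha. Plants were kept in a hothouse for 21 days. Growth inhibition versus untreated control was scored 0–4 (0%, 1–39%, 40–69%, 70–89%, 90–100%).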

[8] = dosage 1000 g/ha, treated 5 days after transplantation

SMILES | Bulrush pre (herbicidal efficacy grade) (bulrush [1]; dosage 1000 g/ha) | False pimpernel pre (herbicidal efficacy grade) (false pimpernel [2]; dosage 1000 g/ha) | Burnyard grass post (herbicidal efficacy grade) (barnyard glass; dosage 1000 g/ha) | Bulrush post (herbicidal efficacy grade) (bulrush [3]; dosage 1000 g/ha) | False pimpernel post (herbicidal efficacy grade) (false pimpernel [4]; dosage 1000 g/ha) | Phytotoxicity to paddy rice [5, 8] | Herbicide effect to Bulrush (bulrush [6]) | Selective Index [7] | Bulrush pre (herbicidal efficacy grade) (bulrush [1]; dosage 300 g/ha) | False pimpernel pre (herbicidal efficacy grade) (false pimpernel [2]; dosage 300 g/ha) | Burnyard grass post (herbicidal efficacy grade) (barnyard glass; dosage 300 g/ha) | Bulrush post (herbicidal efficacy grade) (bulrush [3]; dosage 300 g/ha) | False pimpernel post (herbicidal efficacy grade) (false pimpernel [4]; dosage 300 g/ha) | Phytotoxicity to paddy rice ([5]; dosage 300 g/ha) | Bulrush pre (herbicidal efficacy grade) (bulrush [1]; dosage 100 g/ha) | False pimpernel pre (herbicidal efficacy grade) (false pimpernel [2]; dosage 100 g/ha) | Burnyard grass post (herbicidal efficacy grade) (barnyard glass; dosage 100 g/ha) | Bulrush post (herbicidal efficacy grade) (bulrush [3]; dosage 100 g/ha) | False pimpernel post (herbicidal efficacy grade) (false pimpernel [4]; dosage 100 g/ha) | Phytotoxicity to paddy rice ([5]; dosage 100 g/ha as printed in the table line)
COCCOC(=O)N(c1ccccc1CN1CC(C)(C)OC1=O)S(=O)(=O)C(F)(F)F [1-81] | 4 (90%-100% of herbicidal efficacy or phytotoxicity) | 4 (90%-100% of herbicidal efficacy or phytotoxicity) | 4 (90%-100% of herbicidal efficacy or phytotoxicity) | 4 (90%-100% of herbicidal efficacy or phytotoxicity) | 4 (90%-100% of herbicidal efficacy or phytotoxicity) | 2 (40%-69% of herbicidal efficacy or phytotoxicity) | 4 (90%-100% of herbicidal efficacy or phytotoxicity) | 30 | – | – | – | – | – | – | – | – | – | – | – | –
CCCCOC(=O)N(c1ccccc1CN1CC(CC)(CC)OC1=O)S(=O)(=O)C(F)(F)F [1-99] | 4 (90%-100% of herbicidal efficacy or phytotoxicity) | 4 (90%-100% of herbicidal efficacy or phytotoxicity) | 4 (90%-100% of herbicidal efficacy or phytotoxicity) | 4 (90%-100% of herbicidal efficacy or phytotoxicity) | 4 (90%-100% of herbicidal efficacy or phytotoxicity) | 1 (1%-39% of herbicidal efficacy or phytotoxicity) | 4 (90%-100% of herbicidal efficacy or phytotoxicity) | 10 | – | – | – | – | – | – | – | – | – | – | – | –
C=CCOC(=O)N(c1ccccc1CN1CC(C)(C)OC1=O)S(=O)(=O)C(F)(F)F [1-82] | 4 (90%-100% of herbicidal efficacy or phytotoxicity) | 4 (90%-100% of herbicidal efficacy or phytotoxicity) | 4 (90%-100% of herbicidal efficacy or phytotoxicity) | 4 (90%-100% of herbicidal efficacy or phytotoxicity) | 4 (90%-100% of herbicidal efficacy or phytotoxicity) | 2 (40%-69% of herbicidal efficacy or phytotoxicity) | 4 (90%-100% of herbicidal efficacy or phytotoxicity) | ≧30 | – | – | – | – | – | – | – | – | – | – | – | –
CC(C)COC(=O)N(c1ccccc1CN1CC(C)(C)SC1=O)S(=O)(=O)C(F)(F)F [Compound No. 1-185, 3-{2-[N-(isobutoxycarbonyl)-N-(trifluoromethanesulfonyl)amino]benzyl}-5,5-dimethylthiazolidin-2-one] | 4 (90%-100% of herbicidal efficacy or phytotoxicity) | 4 (90%-100% of herbicidal efficacy or phytotoxicity) | 4 (90%-100% of herbicidal efficacy or phytotoxicity) | 4 (90%-100% of herbicidal efficacy or phytotoxicity) | 4 (90%-100% of herbicidal efficacy or phytotoxicity) | 0 (0% of herbicidal efficacy or phytotoxicity) | 4 (90%-100% of herbicidal efficacy or phytotoxicity) | 33.3 | – | – | – | – | – | – | – | – | – | – | – | –
CC(C)COC(=O)N(c1ccccc1CN1CC(C)(C)OC1=O)S(=O)(=O)C(F)(F)F [1-44] | 4 (90%-100% of herbicidal efficacy or phytotoxicity) | 4 (90%-100% of herbicidal efficacy or phytotoxicity) | 4 (90%-100% of herbicidal efficacy or phytotoxicity) | 4 (90%-100% of herbicidal efficacy or phytotoxicity) | 4 (90%-100% of herbicidal efficacy or phytotoxicity) | 2 (40%-69% of herbicidal efficacy or phytotoxicity) | 4 (90%-100% of herbicidal efficacy or phytotoxicity) | 30 | – | – | – | – | – | – | – | – | – | – | – | –
CCCC1(C)CN(Cc2ccccc2N(C(=O)OC)S(=O)(=O)C(F)(F)F)C(=O)O1 (racemic) [1-126] | 4 (90%-100% of herbicidal efficacy or phytotoxicity) | 4 (90%-100% of herbicidal efficacy or phytotoxicity) | 4 (90%-100% of herbicidal efficacy or phytotoxicity) | 4 (90%-100% of herbicidal efficacy or phytotoxicity) | 4 (90%-100% of herbicidal efficacy or phytotoxicity) | 2 (40%-69% of herbicidal efficacy or phytotoxicity) | 4 (90%-100% of herbicidal efficacy or phytotoxicity) | 10 | – | – | – | – | – | – | – | – | – | – | – | –
CCCOC(=O)N(c1ccccc1CN1CC(C)(C(C)C)OC1=O)S(=O)(=O)C(F)(F)F (racemic) [1-116] | 4 (90%-100% of herbicidal efficacy or phytotoxicity) | 4 (90%-100% of herbicidal efficacy or phytotoxicity) | 4 (90%-100% of herbicidal efficacy or phytotoxicity) | 4 (90%-100% of herbicidal efficacy or phytotoxicity) | 4 (90%-100% of herbicidal efficacy or phytotoxicity) | 1 (1%-39% of herbicidal efficacy or phytotoxicity) | 4 (90%-100% of herbicidal efficacy or phytotoxicity) | 10 | – | – | – | – | – | – | – | – | – | – | – | –
CCC1(C)CN(Cc2ccccc2N(C(=O)OCC(C)C)S(=O)(=O)C(F)(F)F)C(=O)O1 (racemic) [1-60] | 4 (90%-100% of herbicidal efficacy or phytotoxicity) | 4 (90%-100% of herbicidal efficacy or phytotoxicity) | 4 (90%-100% of herbicidal efficacy or phytotoxicity) | 4 (90%-100% of herbicidal efficacy or phytotoxicity) | 4 (90%-100% of herbicidal efficacy or phytotoxicity) | 3 (70%-89% of herbicidal efficacy or phytotoxicity) | 4 (90%-100% of herbicidal efficacy or phytotoxicity) | ≧30 | – | – | – | – | – | – | – | – | – | – | – | –
COC(=O)N(c1ccccc1CN1C(=O)OCC1C)S(=O)(=O)C(F)(F)F (stereo not shown) [1-150] | 4 (90%-100% of herbicidal efficacy or phytotoxicity) | 4 (90%-100% of herbicidal efficacy or phytotoxicity) | 4 (90%-100% of herbicidal efficacy or phytotoxicity) | 4 (90%-100% of herbicidal efficacy or phytotoxicity) | 4 (90%-100% of herbicidal efficacy or phytotoxicity) | 2 (40%-69% of herbicidal efficacy or phytotoxicity) | 4 (90%-100% of herbicidal efficacy or phytotoxicity) | 10 | – | – | – | – | – | – | – | – | – | – | – | –
COC1N(Cc2ccccc2N(C(=O)OCC(C)C)S(=O)(=O)C(F)(F)F)C(=O)OC1(C)C (stereo not shown) [Compound No. 1-197, 3-{2-[N-(isobutoxycarbonyl)-N-(trifluoromethanesulfonyl)-amino]benzyl}-4-methoxy-5,5-dimethyloxazolidin-2-one] | – | – | – | – | – | – | 4 (90%-100% of herbicidal efficacy or phytotoxicity) | 10 | 4 (90%-100% of herbicidal efficacy or phytotoxicity) | 3 (70%-89% of herbicidal efficacy or phytotoxicity) | 4 (90%-100% of herbicidal efficacy or phytotoxicity) | 4 (90%-100% of herbicidal efficacy or phytotoxicity) | 1 (1%-39% of herbicidal efficacy or phytotoxicity) | 2 (40%-69% of herbicidal efficacy or phytotoxicity) | – | – | – | – | – | –
CCCCC1(C)CN(Cc2ccccc2N(C(=O)OCC)S(=O)(=O)C(F)(F)F)C(=O)O1 (stereo not shown) [1-129] | – | – | – | – | – | – | 4 (90%-100% of herbicidal efficacy or phytotoxicity) | 10 | – | – | – | – | – | – | 2 (40%-69% of herbicidal efficacy or phytotoxicity) | 4 (90%-100% of herbicidal efficacy or phytotoxicity) | 3 (70%-89% of herbicidal efficacy or phytotoxicity) | 4 (90%-100% of herbicidal efficacy or phytotoxicity) | 3 (70%-89% of herbicidal efficacy or phytotoxicity) | 1 (1%-39% of herbicidal efficacy or phytotoxicity)
